Assay [1] has as its target T1, c-KIT kinase (Seq ID no. 1) (Homo sapiens, UniProt P10721).
T1 construct: GST (N); TEV cleavage site (N); purchased deCODE Biostructures
The assay can be described thus: c-KIT Kinase Assay (pyruvate kinase/lactate dehydrogenase coupled). The assay is classed as biochemical. The conditions noted are these: enzymatic assay, ATP 200 μM; read-out: KIT (wt).

Assay [2] addresses T2, c-KIT D816V kinase (Seq ID no. 4) (Homo sapiens, UniProt P10721, D816V).
T2 construct: D816V c-KIT (residues T544-V976 with N-terminal GST fusion, 16 nM); purchased deCODE Biostructures
The assay can be described thus: c-KIT D816V kinase Assay. The note with it: enzymatic assay, ATP 200 uM. The format is biochemical.

Assay [3] has as its target T3, c-KIT VVDV kinase (V559 and V560 deleted and D816V mutation, Seq ID no. 5) (Homo sapiens, UniProt P10721, D816V/DEL559-560).
T3 construct: This construct contains residues T544-V976 of cKit (except for the D816V mutation and the deletion of residues V559 and V560); GST (N); TEV cleavage site (N); purchased deCODE Biostructures
The assay can be described thus: cKIT-VVDV Kinase Assay. The conditions noted are these: enzymatic assay, ATP 200 uM. The assay is classed as biochemical. Here is the method: In this assay, the oxidation of NADH (measured by decrease in absorbance at 340 nm) was continuously monitored spectrophotometrically. […] The inhibition reaction was started by mixing serial diluted test compound with the above reaction mixture. The absorption at 340 nm was monitored continuously for 5 hours at 30° C. on Synergy 2 plate reader (BioTech). […] The protein construct was prepared by deCODE Biostructures using procedures known in the art. This construct contains […] of cKit (except for the D816V […]), an N-terminal tag, a GST-fusion sequence and a TEV cleavage site. This construct is identical to Seq ID no. 1 except for the D816V […].

Assay [4] concerns the target T4, Phospho-KIT (Tyr719) in GIST T1 cells (Homo sapiens, UniProt P10721, DEL560-578).
T4 construct: endogenous in cells; host or cells: GIST T1
The assay can be described thus: GIST T1 KIT Western Blot. The format is cell-based. The note with it: 4 hours, read-out: pKIT suppression by western blot analysi GIST T1. Here is the method: GIST48, GIST430, and GIST882 cells were obtained from J. Fletcher (Brigham and Women's Hospital, Boston, Mass.). GIST T1 cells were obtained from B. Rubin (Cleveland Clinic, Cleveland, Ohio) and Professor Takahiro Taguchi (Kochi Medical School, Nankoku, Kochi, Japan). […] GIST430 cells were grown in Ham's F10 medium supplemented with 15% characterized fetal bovine serum (Invitrogen, Carlsbad, Calif.), 30 mg/L bovine pituitary extract (BD Biosciences, San Jose, Calif.), 0.5% Mito+ serum extender (BD Biosciences, San Jose, Calif.), 1 unit/mL penicillin G, 1 μg/ml streptomycin, and 0.29 mg/mL L-glutamine at 37° C., 5% CO2, 95% humidity. GIST T1 cells were grown in DMEM medium supplemented with 10% characterized fetal bovine serum (Invitrogen, Carlsbad, Calif.), 1 unit/mL penicillin G, 1 ng/ml streptomycin, and 0.29 mg/mL L-glutamine at 37° C., 5% CO2, and 95% humidity. […]
One hundred twenty-five thousand cells were added per well in a 24-well tissue-culture treated plate. […] Phospho-KIT (Tyr719) was detected using an antibody from Cell Signaling Technology (Beverly, Mass.), ECL Plus detection reagent (GE Healthcare, Piscataway, N.J.) and a Molecular Devices Storm 840 phosphorimager in fluorescence mode. […] IC50 values were calculated using Prism software (Graphpad, San Diego, Calif.).
A general note: Immunoblotting shows a protein as a band on a membrane.

Molecules are shown by their SMILES. Some results are limits rather than exact numbers.

T1 sequence (P10721 with tags, fused parts or gaps): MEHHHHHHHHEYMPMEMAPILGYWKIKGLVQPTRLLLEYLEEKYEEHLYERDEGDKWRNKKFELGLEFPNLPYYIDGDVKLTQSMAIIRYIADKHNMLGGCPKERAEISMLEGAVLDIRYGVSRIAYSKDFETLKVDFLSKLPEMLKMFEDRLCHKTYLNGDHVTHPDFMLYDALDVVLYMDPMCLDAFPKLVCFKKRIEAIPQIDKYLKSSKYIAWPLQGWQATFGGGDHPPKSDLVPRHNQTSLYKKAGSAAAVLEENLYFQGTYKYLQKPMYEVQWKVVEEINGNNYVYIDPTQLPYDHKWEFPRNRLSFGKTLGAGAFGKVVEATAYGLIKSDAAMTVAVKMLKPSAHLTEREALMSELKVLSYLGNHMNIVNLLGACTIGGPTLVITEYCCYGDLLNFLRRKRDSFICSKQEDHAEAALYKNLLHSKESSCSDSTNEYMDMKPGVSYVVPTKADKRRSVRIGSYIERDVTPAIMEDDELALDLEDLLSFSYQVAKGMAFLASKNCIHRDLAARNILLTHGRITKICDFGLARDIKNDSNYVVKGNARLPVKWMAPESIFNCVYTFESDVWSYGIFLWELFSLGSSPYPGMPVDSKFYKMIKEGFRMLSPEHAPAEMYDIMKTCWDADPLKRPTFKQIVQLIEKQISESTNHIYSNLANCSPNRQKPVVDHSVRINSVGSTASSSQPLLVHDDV
T2 sequence (P10721 544-976 D816V): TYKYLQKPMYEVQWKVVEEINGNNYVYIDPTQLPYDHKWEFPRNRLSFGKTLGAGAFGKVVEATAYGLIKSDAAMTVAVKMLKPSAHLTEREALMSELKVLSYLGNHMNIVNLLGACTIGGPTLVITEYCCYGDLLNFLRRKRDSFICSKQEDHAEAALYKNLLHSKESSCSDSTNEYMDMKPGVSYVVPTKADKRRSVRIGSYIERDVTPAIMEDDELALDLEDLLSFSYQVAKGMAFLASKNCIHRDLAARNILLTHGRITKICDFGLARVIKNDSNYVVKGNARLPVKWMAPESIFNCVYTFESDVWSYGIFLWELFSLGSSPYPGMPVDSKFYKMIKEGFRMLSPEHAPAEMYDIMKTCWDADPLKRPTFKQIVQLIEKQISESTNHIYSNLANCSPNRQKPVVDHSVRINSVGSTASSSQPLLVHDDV
T4 sequence (P10721 with tags, fused parts or gaps DEL560-578): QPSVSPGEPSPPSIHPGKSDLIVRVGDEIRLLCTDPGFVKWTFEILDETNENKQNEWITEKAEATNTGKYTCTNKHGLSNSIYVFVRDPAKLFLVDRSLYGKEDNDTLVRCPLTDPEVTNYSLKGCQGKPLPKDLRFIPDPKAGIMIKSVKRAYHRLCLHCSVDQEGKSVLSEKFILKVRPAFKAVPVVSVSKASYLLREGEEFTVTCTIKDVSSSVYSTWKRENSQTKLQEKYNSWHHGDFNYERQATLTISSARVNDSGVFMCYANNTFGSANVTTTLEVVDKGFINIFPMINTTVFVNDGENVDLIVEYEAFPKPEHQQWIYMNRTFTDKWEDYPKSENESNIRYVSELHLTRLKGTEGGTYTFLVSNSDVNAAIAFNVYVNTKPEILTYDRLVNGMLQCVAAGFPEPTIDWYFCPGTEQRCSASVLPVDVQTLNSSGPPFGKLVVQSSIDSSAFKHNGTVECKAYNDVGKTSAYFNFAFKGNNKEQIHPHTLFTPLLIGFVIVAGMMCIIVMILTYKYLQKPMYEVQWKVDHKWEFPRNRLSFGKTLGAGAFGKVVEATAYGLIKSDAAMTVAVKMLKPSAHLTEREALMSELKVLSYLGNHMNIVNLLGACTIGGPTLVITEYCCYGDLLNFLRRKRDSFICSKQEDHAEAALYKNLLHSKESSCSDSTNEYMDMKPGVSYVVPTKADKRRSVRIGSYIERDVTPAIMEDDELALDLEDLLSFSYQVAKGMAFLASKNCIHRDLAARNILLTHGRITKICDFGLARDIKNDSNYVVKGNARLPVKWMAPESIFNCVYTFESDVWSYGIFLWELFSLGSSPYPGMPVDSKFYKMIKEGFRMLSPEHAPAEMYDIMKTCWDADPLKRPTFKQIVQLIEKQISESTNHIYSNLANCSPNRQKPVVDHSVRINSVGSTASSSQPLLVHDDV
T3 sequence (P10721 with tags, fused parts or gaps DEL559-560/D816V): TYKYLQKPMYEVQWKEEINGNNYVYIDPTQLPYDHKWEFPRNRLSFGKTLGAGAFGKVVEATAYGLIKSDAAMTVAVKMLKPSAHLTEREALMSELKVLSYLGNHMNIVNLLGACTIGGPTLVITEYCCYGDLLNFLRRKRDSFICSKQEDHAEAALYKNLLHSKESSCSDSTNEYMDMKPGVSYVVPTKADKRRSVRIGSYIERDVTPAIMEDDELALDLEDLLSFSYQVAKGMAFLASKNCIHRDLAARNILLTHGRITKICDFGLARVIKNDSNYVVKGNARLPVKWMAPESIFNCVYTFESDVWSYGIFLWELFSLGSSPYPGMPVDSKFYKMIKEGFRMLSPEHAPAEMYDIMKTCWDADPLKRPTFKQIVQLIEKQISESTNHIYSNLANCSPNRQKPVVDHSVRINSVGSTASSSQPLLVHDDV

In the case of `CCn1c(=O)c(-c2cc(NC(=O)Nc3ccccc3)c(F)cc2Cl)cc2cnc(N)cc21` [Example 21, 1-(5-(7-amino-1-ethyl-2-oxo-1,2-dihydro-1,6-naphthyridin-3-yl)-4-chloro-2-fluorophenyl)-3-phenylurea], the IC50 is below 10 nM in assay [1], 10 to 100 nM in assay [2], below 10 nM in assay [3] and below 10 nM in assay [4].

As for `CCn1c(=O)c(-c2cc(NC(=O)Nc3cccc(CN4CCN(C)CC4)c3)c(F)cc2Cl)cc2cnc(NC)cc21` [Example 79, 1-(4-chloro-5-(1-ethyl-7-(methylamino)-2-oxo-1,2-dihydro-1,6-naphthyridin-3-yl)-2-fluorophenyl)-3-(3-((4-methylpiperazin-1-yl)methyl)phenyl)urea], the figures for the IC50 in assay [1], in assay [2] and in assay [3] were below 10 nM, 100 to 1000 nM and above 1000 nM, respectively.

With `CCn1c(=O)c(-c2cc(NC(=O)Nc3cc(F)cc(CN4CCN(C)CC4)c3)c(F)cc2Cl)cc2cnc(NC)cc21` [Example 88, 1-(4-chloro-5-(1-ethyl-7-(methylamino)-2-oxo-1,2-dihydro-1,6-naphthyridin-3-yl)-2-fluorophenyl)-3-(3-fluoro-5-((4-methylpiperazin-1-yl)methyl)phenyl)urea], the IC50 is below 10 nM in assay [1], 100 to 1000 nM in assay [2] and below 10 nM in assay [4].

For the origin of these results see US8940756B2, “Dihydronaphthyridines and related compounds useful as kinase inhibitors for the treatment of proliferative diseases” (Deciphera Pharmaceuticals, Inc., priority 2012, dated 2015).
